Source: PubChem BioAssay AID624091 (Broad Institute, 2012)
The source made the active and inactive calls. How the calls were made is not given here.

Assays:
Test in all cases: selectivity of inhibitors across GSK3a/b, CDKs – biochemical, selected compounds, dry powder samples, selectivity assay for GSK3beta inhibitor project, dose response (AID 624091)
[1] = target: Cyclin-dependent kinase 1 (Homo sapiens) (UniProt P06493); settings: Carna mobility shift kinase assay, LabChip, panel; CDC2/CycB1
[2] = target: Glycogen synthase kinase-3 beta (Homo sapiens) (UniProt P49841); settings: Carna mobility shift kinase assay, LabChip, panel; GSK3b
[3] = target: Cyclin-dependent kinase 2 (Homo sapiens) (UniProt P24941); settings: Carna mobility shift kinase assay, LabChip, panel
[4] = target: Glycogen synthase kinase-3 alpha (Homo sapiens) (UniProt P49840); settings: Carna mobility shift kinase assay, LabChip, panel; GSK3a
[5] = target: Cyclin-dependent kinase 5 (Homo sapiens) (UniProt Q00535); settings: Carna mobility shift kinase assay, LabChip, panel; CDK5/p25
Sequence of Cyclin-dependent kinase 5 (Homo sapiens) (Q00535 whole entry, looked up): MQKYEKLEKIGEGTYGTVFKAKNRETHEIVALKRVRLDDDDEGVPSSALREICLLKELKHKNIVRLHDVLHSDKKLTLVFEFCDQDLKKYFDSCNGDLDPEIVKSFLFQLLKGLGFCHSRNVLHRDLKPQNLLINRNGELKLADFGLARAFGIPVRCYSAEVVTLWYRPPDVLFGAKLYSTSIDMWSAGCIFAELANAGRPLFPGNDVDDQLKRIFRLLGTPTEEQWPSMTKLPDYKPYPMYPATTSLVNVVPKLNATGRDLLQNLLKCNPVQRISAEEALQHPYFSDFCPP

Sequence of Cyclin-dependent kinase 1 (Homo sapiens) (P06493 whole entry, looked up): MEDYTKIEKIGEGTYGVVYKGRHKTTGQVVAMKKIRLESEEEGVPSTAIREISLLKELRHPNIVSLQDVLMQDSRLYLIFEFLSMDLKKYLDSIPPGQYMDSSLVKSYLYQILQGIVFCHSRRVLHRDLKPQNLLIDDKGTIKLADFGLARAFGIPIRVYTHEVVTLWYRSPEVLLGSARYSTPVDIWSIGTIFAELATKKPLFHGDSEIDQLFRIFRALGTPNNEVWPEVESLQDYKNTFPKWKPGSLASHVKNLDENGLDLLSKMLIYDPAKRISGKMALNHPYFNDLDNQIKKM
Sequence of Glycogen synthase kinase-3 alpha (Homo sapiens) (P49840 whole entry, looked up): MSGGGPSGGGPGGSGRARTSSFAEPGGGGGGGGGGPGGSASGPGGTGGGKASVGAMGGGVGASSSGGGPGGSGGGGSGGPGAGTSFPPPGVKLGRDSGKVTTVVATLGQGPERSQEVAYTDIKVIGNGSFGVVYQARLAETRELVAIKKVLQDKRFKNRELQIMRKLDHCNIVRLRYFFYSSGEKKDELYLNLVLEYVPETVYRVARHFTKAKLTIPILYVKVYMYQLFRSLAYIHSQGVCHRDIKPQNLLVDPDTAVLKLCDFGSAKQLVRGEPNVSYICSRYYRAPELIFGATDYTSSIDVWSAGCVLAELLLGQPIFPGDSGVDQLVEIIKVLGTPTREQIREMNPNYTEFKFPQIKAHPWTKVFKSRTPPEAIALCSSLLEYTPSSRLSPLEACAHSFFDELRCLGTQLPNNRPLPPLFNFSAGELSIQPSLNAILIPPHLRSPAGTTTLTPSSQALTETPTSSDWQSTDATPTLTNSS
Sequence of Glycogen synthase kinase-3 beta (Homo sapiens) (P49841 whole entry, looked up): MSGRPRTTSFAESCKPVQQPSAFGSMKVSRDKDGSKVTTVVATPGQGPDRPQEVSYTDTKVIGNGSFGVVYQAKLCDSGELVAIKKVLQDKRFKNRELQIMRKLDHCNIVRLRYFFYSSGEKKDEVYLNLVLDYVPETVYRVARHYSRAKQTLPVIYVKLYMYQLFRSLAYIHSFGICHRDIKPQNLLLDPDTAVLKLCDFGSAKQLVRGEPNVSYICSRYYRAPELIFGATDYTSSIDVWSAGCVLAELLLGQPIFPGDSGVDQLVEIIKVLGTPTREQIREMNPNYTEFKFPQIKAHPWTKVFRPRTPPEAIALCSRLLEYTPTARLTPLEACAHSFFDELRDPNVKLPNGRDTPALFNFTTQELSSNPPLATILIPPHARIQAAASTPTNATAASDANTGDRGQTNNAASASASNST

SMILES	IC50 [1]	IC50 [2]	IC50 ([3]; CDK2/CycA2)	IC50 ([3]; CDK2/CycE1)	IC50 [4]	IC50 [5]
COc1ccccc1[C@@H]1C2=C(CC(C)(C)CC2=O)Nc2n[nH]c(C(F)(F)F)c21	> 10000 nM (inactive)	12.4 nM	inactive	inactive	13.2 nM	–
Cc1[nH]nc2c1[C@@H](c1ccccc1C(F)(F)F)C1=C(CC(C)(C)CC1=O)N2	839 nM	15.5 nM	561 nM	427 nM	7.79 nM	127 nM
COc1ccccc1C1C2=C(CC(C)(C)CC2=O)Nc2n[nH]c(C(F)(F)F)c21 (stereo not drawn)	> 10000 nM (inactive)	22.8 nM	inactive	inactive	23.4 nM	–
Cc1[nH]nc2c1[C@H](c1ccccc1C(F)(F)F)C1=C(CC(C)(C)CC1=O)N2	> 10000 nM (inactive)	inactive	> 10000 nM (inactive)	> 10000 nM (inactive)	inactive	> 10000 nM (inactive)
COc1ccccc1[C@H]1C2=C(CC(C)(C)CC2=O)Nc2n[nH]c(C(F)(F)F)c21	> 10000 nM (inactive)	613 nM	> 10000 nM (inactive)	> 10000 nM (inactive)	980 nM	–
Cc1[nH]nc2c1C(c1ccccc1C(F)(F)F)C1=C(CC(C)(C)CC1=O)N2 (stereo not drawn)	inactive	26.8 nM	inactive	808 nM	14.6 nM	223 nM
